Data published in patent US20230129438A1, “IMMUNOMODULATING IMINE-OXAZOLINE AZALIDES” (Zoetis Services LLC, priority 2020, published 2023).
In brackets after ≈: the same amount, converted by molar mass. Entries after “also recorded” stand apart in the source; their conditions may differ. Like-named read-outs stand apart in the source and are kept apart here.

Key:
IL-1β = assay: Bovine whole blood assay, IL-1β; type: cell-based; conditions: drug concentration giving overstimulation of IL-1β over LPS (cellular toxicity signal)
Protocol: (§1) (protected from light) for 30 minutes.

TNF-α = assay: Bovine whole blood assay, LPS-induced TNF-α; type: cell-based; conditions: LPS 1 μg/mL
Protocol: as §1

IL-6 = assay: Bovine whole blood assay, LPS-induced IL-6; type: cell-based; conditions: LPS 1 μg/mL
P. multocida 46572 = assay: In vivo mouse lung infection challenge model (murine efficacy model)
[1] = system: bovine respiratory disease (BRD); assay: Natural bovine respiratory disease study; type: in vivo, beef calves; conditions: for Percent failure (treatment failure): 14-day observation, saline 43%
Protocol: The primary clinical endpoint for efficacy was treatment failure/success over a 14-day observation period. Clinically normal beef calves (150-200 kg) at moderate risk for BRD were dosed on arrival to the feedlot. Animals (N=114/group) received saline (T01), 5 mg/kg M9 (T02) or 10 mg/kg M9 (T03); or Zactran (T04). […] Bacterial isolates were collected at necropsy and MICs were evaluated (Table 4).

NLRX1 = NLRX1 (Bos taurus, UniProt A7MB19); assay: Drug binding partner identification (NPOT/SPR), NLRX1; set-up: species or system bovine; conditions: tissue PBMCs
Protocol: (§2) To further characterize the direct activity of the compounds of the invention, experiments to identify the drug's direct binding host partners(s) were performed with the aim of identifying the potential biological targets. Bovine primary cells (peripheral blood mononuclear cells [PBMCs] and polymorphonuclear cells [PMN/neutrophils]) and tissue (trachea, lung) protein homogenates were mixed with M9 and the macrolide, gamithromicin as a comparator. Tissue interactions were allowed to form using a heterogeneous assembly method (nematic protein organization technique, NPOT; Inoviem Scientific); and traditional western blots to identify native-structure proteins bound to the compound. Mass spectrometry analysis identified eight proteins involved in the interaction with M9 as compared to gamithromycin. The antibacterial macrolide gamithromycin was used as a comparator to differentiate specific binding to M9. These proteins were considered to be either direct binding partners of the drug or closely involved in the drug:target interaction (Table 6).
(§3) In order to add further clarity to binding partner identification, surface plasma resonance (SPR) technology was used. […]
(§4) KD is the equilibrium dissociation constant that was used to present the drug/target affinity. The identified targets associated with drug were measured by surface plasmon resonance (SPR) to define the KD.

LCN2 = target: T1, LCN2 (Bos taurus, UniProt A0AAA9TIZ6); assay: Surface plasmon resonance (SPR) drug/target binding, LCN2; set-up: species or system bovine; conditions: read-out: Interaction KD
T1 sequence (A0AAA9TIZ6 24-200): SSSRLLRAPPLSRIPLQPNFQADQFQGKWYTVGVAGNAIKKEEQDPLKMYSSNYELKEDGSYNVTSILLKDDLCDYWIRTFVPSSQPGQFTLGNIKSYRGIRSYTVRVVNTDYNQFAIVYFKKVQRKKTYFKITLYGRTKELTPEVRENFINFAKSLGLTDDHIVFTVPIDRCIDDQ
Protocol: as §2, §3, §4

[2] = Separate study of M9 versus saline control (lung lesions, mortality); type: in vivo; conditions: 10 mg/kg
P. multocida [3] = assay: Murine P. multocida intranasal challenge study with lung tissue RNA sequence analysis; type: in vivo, mouse; conditions: placebo 0%
Protocol: In one murine P. multocida intranasal challenge study, mice were administered tulathromycin (16 mg/kg; T02), M9 (32 mg/kg; T03), or ceftiofur (9 mg/kg; T04) by subcutaneous injection 18 hours after bacterial challenge (5×10^3 CFU/mouse) for lung tissue RNA sequence analysis. Survival at Day 7 was about 80%, 50%, and 90% for T02, T03, and T04, respectively, compared to placebo at 0%. Differential gene expression from total lung tissue RNA sequence analysis indicated at least 226 unique genes were up or down regulated (with significance) for T03. Output from ingenuity pathway analysis of these unique genes predicted major upstream regulators of the involved pathways. Data was analyzed based on the number of genes being modulated in the same direction that were associated with a given upstream regulator. An activation z-score of 2 or greater is considered significant and the direction change is indicated by + (activated) or − (inhibited). The top 5 pathways included: IL-9 signaling, glucocorticoid receptor signaling, prolactin signaling, JAK STAT signaling, and IL-17 signaling. The top 6 upstream regulators (activation z-score) included: lipopolysaccharide (−6.725), TNF (−4.669), IFNγ (−5.759), IL-1β (−5.947), STAT1 (−2.787), and poly rI:rC-RNA (−5.289). Even though this study was run in the murine model, the top upstream regulators identified as being modulated by M9 include an almost ubiquitous overlap with the pathways identified in the natural disease study as being key mediators in BRD, and therefore is modulating highly relevant pathways in BRD pathobiology.

SLAMF9 = SLAMF9 (Bos taurus, UniProt E1BNF9); assay: Surface plasmon resonance (SPR) drug/target binding, SLAMF9; set-up: species or system bovine; conditions: read-out: Interaction KD
Protocol: as §2, §3, §4

[4] = Separate PK study, plasma concentration; conditions: following a 10 mg/kg dose
[5] = system: M. haemolytica (strain: OSU-012103-BHI); assay: Bovine M. haemolytica intratracheal lung challenge model; type: in vivo; conditions: for Mortality: saline 4/6; for IL-6 levels, in words: bovine M. haemolytica challenge, blood biomarker
TLR4 = target: T2, TLR4 (Bos taurus, UniProt Q9GL65); assay: Drug binding partner identification (NPOT/SPR), TLR4; set-up: species or system bovine; conditions: tissue PBMCs, Trachea
T2 sequence (Q9GL65 24-841): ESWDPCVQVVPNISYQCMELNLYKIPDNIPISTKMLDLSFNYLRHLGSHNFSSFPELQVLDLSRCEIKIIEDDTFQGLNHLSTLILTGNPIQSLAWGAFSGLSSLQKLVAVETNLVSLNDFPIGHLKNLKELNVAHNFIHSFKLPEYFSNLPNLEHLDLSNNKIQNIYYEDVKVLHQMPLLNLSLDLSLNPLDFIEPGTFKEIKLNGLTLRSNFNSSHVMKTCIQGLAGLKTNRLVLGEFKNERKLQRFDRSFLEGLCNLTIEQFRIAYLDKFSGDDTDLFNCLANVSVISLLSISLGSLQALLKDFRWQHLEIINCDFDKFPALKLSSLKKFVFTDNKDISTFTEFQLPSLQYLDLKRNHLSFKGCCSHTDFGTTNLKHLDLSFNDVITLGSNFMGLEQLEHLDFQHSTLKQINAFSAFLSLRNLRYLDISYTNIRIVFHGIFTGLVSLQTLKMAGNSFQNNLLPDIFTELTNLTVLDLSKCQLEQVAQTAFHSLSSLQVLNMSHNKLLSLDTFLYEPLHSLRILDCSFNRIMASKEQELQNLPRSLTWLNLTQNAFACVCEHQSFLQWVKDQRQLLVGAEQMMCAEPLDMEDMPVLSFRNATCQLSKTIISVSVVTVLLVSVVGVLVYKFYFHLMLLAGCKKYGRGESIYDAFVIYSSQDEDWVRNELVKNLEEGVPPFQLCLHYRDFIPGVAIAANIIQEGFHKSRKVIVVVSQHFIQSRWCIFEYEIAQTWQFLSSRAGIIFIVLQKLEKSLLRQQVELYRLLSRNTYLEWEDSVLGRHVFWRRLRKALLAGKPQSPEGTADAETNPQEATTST
Protocol: as §2, §3, §4

LPO = LPO (Bos taurus, UniProt P80025); assay: Drug binding partner identification (NPOT/SPR), LPO; set-up: species or system bovine; conditions: tissue Trachea, PBMCs, PMNs
Protocol: as §2, §3, §4

H. somni = assay: In-vitro MIC model, H. somni; type: cell-based; conditions: lung isolates at necropsy, natural BRD study, H. somni (25)
M. haemolytica = assay: In-vitro MIC model, M. haemolytica; type: cell-based
P. multocida [6] = assay: In-vitro MIC model, P. multocida; type: cell-based
[7] = lung isolates at necropsy, natural BRD study, M. haemolytica (116)
[8] = lung isolates at necropsy, natural BRD study, P. multocida (33)

Chain of SLAMF9 (E1BNF9 1-289): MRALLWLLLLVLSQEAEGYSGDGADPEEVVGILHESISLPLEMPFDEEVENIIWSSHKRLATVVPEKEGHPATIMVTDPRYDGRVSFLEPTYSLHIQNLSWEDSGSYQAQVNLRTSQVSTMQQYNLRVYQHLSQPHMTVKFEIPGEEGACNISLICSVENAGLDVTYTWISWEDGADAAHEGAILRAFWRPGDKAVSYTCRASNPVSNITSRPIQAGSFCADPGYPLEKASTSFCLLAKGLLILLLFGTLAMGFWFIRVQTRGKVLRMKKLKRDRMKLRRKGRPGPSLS
Chain of NLRX1 (A7MB19 1-973): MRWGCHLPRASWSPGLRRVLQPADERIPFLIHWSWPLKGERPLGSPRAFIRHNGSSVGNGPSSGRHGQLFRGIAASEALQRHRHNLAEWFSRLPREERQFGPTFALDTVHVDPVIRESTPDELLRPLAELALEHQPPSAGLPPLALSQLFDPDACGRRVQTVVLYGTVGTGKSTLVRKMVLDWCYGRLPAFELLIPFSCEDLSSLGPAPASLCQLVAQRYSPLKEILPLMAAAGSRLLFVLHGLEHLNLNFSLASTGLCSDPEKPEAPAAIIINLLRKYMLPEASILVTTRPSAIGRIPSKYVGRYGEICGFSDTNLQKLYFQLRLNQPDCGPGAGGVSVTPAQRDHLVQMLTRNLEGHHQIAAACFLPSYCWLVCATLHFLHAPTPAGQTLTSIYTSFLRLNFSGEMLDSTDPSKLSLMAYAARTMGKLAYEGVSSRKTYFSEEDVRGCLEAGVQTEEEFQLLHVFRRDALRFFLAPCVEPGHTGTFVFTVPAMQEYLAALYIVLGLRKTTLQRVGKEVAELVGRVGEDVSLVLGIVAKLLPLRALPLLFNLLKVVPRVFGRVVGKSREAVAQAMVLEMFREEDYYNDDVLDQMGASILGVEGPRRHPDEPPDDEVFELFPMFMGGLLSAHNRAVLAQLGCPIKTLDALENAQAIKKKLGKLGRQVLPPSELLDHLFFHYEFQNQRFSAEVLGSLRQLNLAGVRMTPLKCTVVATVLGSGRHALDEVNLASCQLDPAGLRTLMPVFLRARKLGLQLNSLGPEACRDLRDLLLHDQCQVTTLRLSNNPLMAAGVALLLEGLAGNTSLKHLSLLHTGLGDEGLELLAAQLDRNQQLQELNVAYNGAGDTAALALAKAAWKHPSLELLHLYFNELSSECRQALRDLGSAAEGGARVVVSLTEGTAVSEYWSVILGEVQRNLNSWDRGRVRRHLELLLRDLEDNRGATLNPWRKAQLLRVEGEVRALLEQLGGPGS

## CC[C@H]1OC(=O)[C@H](C)[C@@H](O[C@H]2C[C@@](C)(OC)[C@](O)(CNCC(C)C)[C@H](C)O2)[C@H](C)[C@@H](O[C@@H]2O[C@H](C)C[C@H]3[C@H]2OC(=Nc2ccc(OC)nc2)N3C)[C@](C)(O)C[C@@H](C)CN[C@H](C)[C@@H](O)[C@]1(C)O (mixture of isomers) [Example A-28, (E/Z)-(2R,3S,4R,5R,8R,10R,11R,12S,13S,14R)-2-ethyl-3,4,10-trihydroxy-13-(((2R,4R,5S,6S)-5-hydroxy-5-((isobutylamino)methyl)-4-methoxy-4,6-dimethyltetrahydro-2H-pyran-2-yl)oxy)-11-(((3aR,4S,6R,7aS)-2-((6-methoxypyridin-3-yl)imino)-1,6-dimethylhexahydro-2H-pyrano[4,3-d]oxazol-4-yl)oxy)-3,5,8,10,12,14-hexamethyl-1-oxa-6-azacyclopentadecan-15-one]
IL-1β
  IL-Iβ OS of LPS: 16 µM
TNF-α
  IC50: 8 µM
IL-6
  IC50: 20 µM
P. multocida 46572; 20 mg/kg subcutaneous, CD-1 mice, intranasal challenge, to Day 10, approximate (~%), harmonized relative to vehicle and M9
  % Survival: 53%

## CCCNC[C@]1(O)[C@H](C)O[C@@H](O[C@H]2[C@H](C)[C@@H](O[C@@H]3O[C@H](C)C[C@H](NC)[C@H]3O)[C@](C)(O)C[C@@H](C)CN[C@H](C)[C@@H](O)[C@](C)(O)[C@@H](CC)OC(=O)[C@@H]2C)C[C@@]1(C)OC [Example M9, (2R,3S,4R,5R,8R,10R,11R,12S,13S,14R)-2-ethyl-3,4,10-trihydroxy-13-(((2R,4R,5S,6S)-5-hydroxy-4-methoxy-4,6-dimethyl-5-((propylamino)methyl)-tetrahydro-2H-pyran-2-yl)oxy)-11-(((2S,3R,4S,6R)-3-hydroxy-6-methyl-4-(methylamino)tetrahydro-2H-pyran-2-yl)oxy)-3,5,8,10,12,14-hexamethyl-1-oxa-6-azacyclopentadecan-15-one]
[1]; 10 mg/kg (T03), dosed on arrival
  Percent failure (treatment failure): 8.8%
[1]; reduction of lung lesions and treatment failure
  efficacy versus untreated control groups, in words: statistical superiority
NLRX1
  Interaction: Indirect
LCN2; pH 5.5, SPR
  Kd: 435 µM
LCN2; pH 6.5, SPR
  Kd: 4210 µM
[2]; saline control 31%, p=0.023
  lung lesions: 20%
[2]; saline control 38.9%, p=0.025
  Mortality: 13%
P. multocida [3]; 32 mg/kg subcutaneous 18 hours after challenge (T03)
  Survival at Day 7: ~50%
SLAMF9; pH 5.5, SPR
  Kd: 6330 µM
SLAMF9; pH 6.5, SPR
  Kd: 2150 µM
IL-1β
  IL-Iβ OS of LPS: > 500 µM
[4]
  maximum plasma concentration: 5 µg/mL
[5]; T02: 10 mg/kg subcutaneous Day −1, M. haemolytica challenge Day 0
  Mortality: 1/6
[5]
  IL-6 levels, in words: significantly reduced
[5]; cattle, monocytes/macrophages in whole blood, flow cytometry
  CD163 expression, in words: suppressed; also recorded: mitigates the pathologic increase
TLR4
  Interaction: Indirect
P. multocida 46572; P. multocida infection in mice
  clinical efficacy, in words: clinically efficacious
LPO
  Interaction: Indirect

## CO/N=C(\C(=O)N[C@@H]1C(=O)N2C(C(=O)O)=C(CSC(=O)c3ccco3)CS[C@H]12)c1csc(N)n1 [ceftiofur]
P. multocida [3]; 9 mg/kg subcutaneous 18 hours after challenge (T04)
  Survival at Day 7: ~90%

## CCCN1C[C@H](C)[C@@H](O)[C@](C)(O)[C@@H](CC)OC(=O)[C@H](C)[C@@H](O[C@H]2C[C@@](C)(OC)[C@@H](O)[C@H](C)O2)[C@H](C)[C@@H](O[C@@H]2O[C@H](C)C[C@H](N(C)C)[C@H]2O)[C@](C)(O)C[C@H]1C [gamithromycin, reference compound]
H. somni
  MIC50: 0.25 µg/mL (≈ 0.322 µM)
  MIC90: 2 µg/mL (≈ 2.57 µM)
[1]; T04, dose not given
  Percent failure (treatment failure): 29.8%
M. haemolytica; [7]
  MIC50: 1 µg/mL (≈ 1.29 µM)
  MIC90: >64 µg/mL
M. haemolytica; the same M. haemolytica screening strains
  MIC values, range over strains: 0.5 to 1 µg/mL
P. multocida [6]; [8]
  MIC50: 1 µg/mL (≈ 1.29 µM)
  MIC90: >64 µg/mL
P. multocida [6]; the same P. multocida screening strains
  MIC values, range over strains: 1 to 2 µg/mL

## CCCNC[C@]1(O)[C@H](C)O[C@@H](O[C@H]2[C@H](C)[C@@H](O[C@@H]3O[C@H](C)C[C@H](N(C)C)[C@H]3O)[C@](C)(O)C[C@@H](C)CN[C@H](C)[C@@H](O)[C@](C)(O)[C@@H](CC)OC(=O)[C@@H]2C)C[C@@]1(C)OC [tulathromycin, (2R,3S,4R,5R,8R,10R,11R,12S,13S,14R)-11-(((2S,3R,4S,6R)-4-(dimethylamino)-3-hydroxy-6-methyltetrahydro-2H-pyran-2-yl)oxy)-2-ethyl-3,4,10-trihydroxy-13-(((2R,4R,5S,6S)-5-hydroxy-4-methoxy-4,6-dimethyl-5-((propylamino)methyl)tetrahydro-2H-pyran-2-yl)oxy)-3,5,8,10,12,14-hexamethyl-1-oxa-6-azacyclopentadecan-15-one]
P. multocida [3]; 16 mg/kg subcutaneous 18 hours after challenge (T02)
  Survival at Day 7: about 80%
[5]; T03: 2.5 mg/kg subcutaneous Day −1, M. haemolytica challenge Day 0
  Mortality: 0/6
[5]
  IL-6 levels, in words: significantly reduced
